Experimental data taken from ChEMBL document CHEMBL1149550, “5(Z)-benzylidene-1,2-dihydro-9-hydroxy-10-methoxy-2,2,4-trimethyl-5H-1-aza-6-oxa-chrysenes as non-steroidal glucocorticoid receptor modulators” (Bioorg Med Chem Lett, 2007).
Calls of active or inactive are those of the source. The calls are words filed in the database; no cut-off is given here.

Columns and labels:
Progesterone receptor = molecular target: T1, Progesterone receptor (Homo sapiens, UniProt P06401); experiment: Binding affinity at PR
T1 sequence (P06401 whole entry): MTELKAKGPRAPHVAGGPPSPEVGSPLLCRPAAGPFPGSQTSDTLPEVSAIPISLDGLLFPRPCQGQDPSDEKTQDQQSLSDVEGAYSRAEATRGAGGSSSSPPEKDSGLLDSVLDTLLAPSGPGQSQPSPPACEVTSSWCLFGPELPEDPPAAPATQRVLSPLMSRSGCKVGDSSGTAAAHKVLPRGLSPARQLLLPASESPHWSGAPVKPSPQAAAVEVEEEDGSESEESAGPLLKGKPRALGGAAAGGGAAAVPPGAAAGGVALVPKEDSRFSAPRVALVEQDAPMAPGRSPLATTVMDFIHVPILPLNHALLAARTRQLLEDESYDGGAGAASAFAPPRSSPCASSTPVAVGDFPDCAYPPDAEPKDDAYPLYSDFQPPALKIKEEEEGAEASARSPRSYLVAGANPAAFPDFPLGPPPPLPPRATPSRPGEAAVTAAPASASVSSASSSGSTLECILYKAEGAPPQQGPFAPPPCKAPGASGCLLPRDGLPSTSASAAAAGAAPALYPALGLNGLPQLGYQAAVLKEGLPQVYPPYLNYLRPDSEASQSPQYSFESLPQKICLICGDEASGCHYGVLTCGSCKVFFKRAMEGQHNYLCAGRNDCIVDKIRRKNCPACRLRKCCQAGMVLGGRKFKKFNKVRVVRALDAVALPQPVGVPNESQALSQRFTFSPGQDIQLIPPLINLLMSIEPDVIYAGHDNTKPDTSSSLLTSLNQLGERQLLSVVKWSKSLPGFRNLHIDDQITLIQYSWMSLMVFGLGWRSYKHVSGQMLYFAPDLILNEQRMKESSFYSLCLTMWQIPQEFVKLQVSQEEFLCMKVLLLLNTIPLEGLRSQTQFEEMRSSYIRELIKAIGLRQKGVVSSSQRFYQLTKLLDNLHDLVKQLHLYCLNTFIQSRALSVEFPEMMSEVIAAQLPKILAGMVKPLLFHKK

Androgen receptor = molecular target: T2, Androgen receptor (Homo sapiens, UniProt P10275); experiment: Binding affinity at AR
T2 sequence (P10275 whole entry): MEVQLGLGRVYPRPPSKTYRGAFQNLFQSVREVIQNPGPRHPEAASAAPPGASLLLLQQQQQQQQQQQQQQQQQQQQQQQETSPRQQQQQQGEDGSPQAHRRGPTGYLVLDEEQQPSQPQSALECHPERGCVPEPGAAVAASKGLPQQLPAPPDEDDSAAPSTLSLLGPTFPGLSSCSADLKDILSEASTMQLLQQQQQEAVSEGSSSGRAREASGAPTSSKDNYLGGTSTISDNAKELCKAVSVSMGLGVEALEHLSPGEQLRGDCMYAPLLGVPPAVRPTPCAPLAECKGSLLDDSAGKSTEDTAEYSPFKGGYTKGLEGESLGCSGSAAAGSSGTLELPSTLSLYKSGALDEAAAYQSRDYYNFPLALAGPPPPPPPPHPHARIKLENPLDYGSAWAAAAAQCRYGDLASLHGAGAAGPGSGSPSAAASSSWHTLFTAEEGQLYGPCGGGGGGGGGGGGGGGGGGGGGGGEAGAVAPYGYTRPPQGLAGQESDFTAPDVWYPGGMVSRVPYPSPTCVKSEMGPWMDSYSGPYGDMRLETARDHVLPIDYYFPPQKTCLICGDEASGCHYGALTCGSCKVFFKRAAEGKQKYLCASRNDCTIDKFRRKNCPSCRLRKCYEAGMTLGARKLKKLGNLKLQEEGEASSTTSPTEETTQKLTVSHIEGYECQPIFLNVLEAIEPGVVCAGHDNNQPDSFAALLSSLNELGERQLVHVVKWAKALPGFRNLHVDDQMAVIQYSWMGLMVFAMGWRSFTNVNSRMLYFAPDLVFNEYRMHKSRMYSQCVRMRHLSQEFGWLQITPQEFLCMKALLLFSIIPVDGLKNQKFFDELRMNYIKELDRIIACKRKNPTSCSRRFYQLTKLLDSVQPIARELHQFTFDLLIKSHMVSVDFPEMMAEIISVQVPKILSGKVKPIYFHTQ

[1] = molecular target: T3, Mineralocorticoid receptor (Homo sapiens, UniProt P08235); experiment: Binding affinity at MR
T3 sequence (P08235 whole entry): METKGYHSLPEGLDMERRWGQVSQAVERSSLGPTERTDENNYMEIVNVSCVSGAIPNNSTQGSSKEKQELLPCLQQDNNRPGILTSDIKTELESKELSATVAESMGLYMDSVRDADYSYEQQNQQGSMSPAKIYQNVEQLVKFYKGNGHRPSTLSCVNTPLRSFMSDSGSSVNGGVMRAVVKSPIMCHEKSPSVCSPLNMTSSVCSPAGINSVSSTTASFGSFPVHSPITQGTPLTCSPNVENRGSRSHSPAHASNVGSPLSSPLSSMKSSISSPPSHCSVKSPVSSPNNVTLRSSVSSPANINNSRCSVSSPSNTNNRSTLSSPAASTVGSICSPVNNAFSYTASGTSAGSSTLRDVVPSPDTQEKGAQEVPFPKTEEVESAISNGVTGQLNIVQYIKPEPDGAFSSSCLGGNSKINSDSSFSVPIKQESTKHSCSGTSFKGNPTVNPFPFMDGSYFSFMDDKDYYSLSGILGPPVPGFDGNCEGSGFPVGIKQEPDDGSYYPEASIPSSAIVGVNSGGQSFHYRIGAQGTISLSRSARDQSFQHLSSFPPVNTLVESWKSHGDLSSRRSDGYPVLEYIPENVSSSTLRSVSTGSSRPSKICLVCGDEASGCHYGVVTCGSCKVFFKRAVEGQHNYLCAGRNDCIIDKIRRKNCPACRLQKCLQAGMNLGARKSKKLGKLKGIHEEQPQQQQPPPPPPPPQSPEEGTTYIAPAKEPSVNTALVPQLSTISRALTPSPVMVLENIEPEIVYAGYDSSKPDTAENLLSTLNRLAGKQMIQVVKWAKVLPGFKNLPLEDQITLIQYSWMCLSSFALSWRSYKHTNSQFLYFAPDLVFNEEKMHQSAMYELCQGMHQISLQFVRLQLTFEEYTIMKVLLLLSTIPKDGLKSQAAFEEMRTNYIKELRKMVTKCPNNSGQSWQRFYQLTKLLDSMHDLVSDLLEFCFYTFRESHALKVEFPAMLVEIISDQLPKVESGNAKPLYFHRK

Glucocorticoid receptor [2] = molecular target: T4, Glucocorticoid receptor (Homo sapiens, UniProt P04150); format: functional
T4 sequence (P04150 whole entry): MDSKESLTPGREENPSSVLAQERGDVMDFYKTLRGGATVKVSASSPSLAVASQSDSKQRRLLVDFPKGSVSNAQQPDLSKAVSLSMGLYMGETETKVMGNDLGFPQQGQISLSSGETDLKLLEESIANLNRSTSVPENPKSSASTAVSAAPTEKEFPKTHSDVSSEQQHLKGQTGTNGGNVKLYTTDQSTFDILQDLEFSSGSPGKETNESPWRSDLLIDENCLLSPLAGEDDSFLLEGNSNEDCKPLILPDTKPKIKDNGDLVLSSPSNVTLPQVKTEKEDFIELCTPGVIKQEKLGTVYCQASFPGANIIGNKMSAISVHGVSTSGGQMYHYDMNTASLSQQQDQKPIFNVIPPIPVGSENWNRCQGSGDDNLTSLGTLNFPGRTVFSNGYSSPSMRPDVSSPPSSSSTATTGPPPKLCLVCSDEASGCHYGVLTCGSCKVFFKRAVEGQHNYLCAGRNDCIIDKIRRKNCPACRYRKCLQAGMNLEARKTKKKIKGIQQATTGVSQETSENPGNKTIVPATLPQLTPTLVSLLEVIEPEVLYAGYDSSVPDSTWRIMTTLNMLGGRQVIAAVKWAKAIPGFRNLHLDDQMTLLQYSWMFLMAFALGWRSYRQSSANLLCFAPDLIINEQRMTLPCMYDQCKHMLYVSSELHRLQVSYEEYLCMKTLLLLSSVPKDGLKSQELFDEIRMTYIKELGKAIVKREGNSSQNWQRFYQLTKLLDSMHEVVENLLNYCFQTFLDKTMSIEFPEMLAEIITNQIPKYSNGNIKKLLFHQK
Description: Agonist activity at GR by GRE activation assay

Glucocorticoid receptor [3] = molecular target: T4, Glucocorticoid receptor; format: functional; remark: listed apart in the source
Description: Antagonist activity at GR assessed as inhibition of dexamethasone-induced GRE activation

Glucocorticoid receptor [4] = molecular target: T4, Glucocorticoid receptor; format: functional; remark: listed apart in the source
Description: Activity at GR assessed as repression of TNFalpha and IL 1-beta induced E-selectin response

Glucocorticoid receptor [5] = molecular target: T4, Glucocorticoid receptor
Description: Displacement of radiolabeled Dexamethasone from glucocorticoid receptor

Rattus norvegicus = experiment: Antiinflammatory activity against carrageenan-induced paw edema in rat assessed as paw volume at 30 mg/kg after 3 hrs; format: functional, organism-based; parameters: dose 30 mg/kg

Ki (Progesterone receptor) [nM]	Ki (Androgen receptor) [nM]	Ki [1] [nM]	EC50 (Glucocorticoid receptor [2]) [nM]	IC50 (Glucocorticoid receptor [3]) [nM]	IC50 (Glucocorticoid receptor [4]) [nM]	Ki (Glucocorticoid receptor [5]) [nM]	SMILES	Activity (Rattus norvegicus)
840	630	430					COCOCc1cc(F)ccc1/C=C1\Oc2ccc(O)c(OC)c2-c2ccc3c(c21)C(C)=CC(C)(C)N3	
750	910	290	1.5	4.7	1.1	1.4	COc1c(O)ccc2c1-c1ccc3c(c1/C(=C/c1cccc(O)c1)O2)C(C)=CC(C)(C)N3	
970	700	1100					COc1c(O)ccc2c1-c1ccc3c(c1/C(=C/c1ccc(F)cc1CO)O2)C(C)=CC(C)(C)N3	
							COc1c(O)ccc2c1-c1ccc3c(c1/C(=C/c1cc(F)cc4c1OCOC4)O2)C(C)=CC(C)(C)N3	Active
